In assay [1] the test system is yeast Saccharomyces cerevisiae. The experiment in a line: growth defect of yeast on methotrexate drug exposure. Format: cell-based. Conditions: 100 μM titration of methotrexate.
Assay [2] concerns yeast gene YOL031C expression. The experiment in a line: gene transcript array mRNA expression response to methotrexate titrations, Hill function fit. Type of assay: cell-based, Saccharomyces cerevisiae. Conditions: least squares fit of YOL031C expression response (log10 expression ratio); exposure levels 3, 6, 25, 50, 100, 200 μM. The text has this:
FIG. 2 illustrates an example of perturbation response profiles measured at discrete protein activity levels of dihydrofolate reductase. Specifically, the figure illustrates mRNA expression levels of 30 genes of the yeast Saccharomyces cerevisiae that, of the approximately 6000 genes in the genome of this yeast, had the largest expression changes in response to six different titrations of the drug methotrexate, which is known to act primarily by disrupting the activity of dihydrofolate reductase. These gene expression level measurements were made with gene transcript arrays, as described in Section 5.4. The perturbation response profiles in FIG. 2 can be interpolated according to the methods disclosed in Section 5.3, below, to provide perturbation response profiles for any activity level of dihydrofolate reductase, and are thereby correlated to efficacy of the drug methotrexate.
In model fitting, the perturbation responses are interpolated by approximating each by a single parameterized function. An exemplary model-fitting function appropriate for approximating transcriptional state data is the Hill function, which has adjustable parameters a, u0, and n. [formula]
the adjustable parameters are selected independently for each cellular constituent of the perturbation response. Preferably, the adjustable parameters are selected so that for each cellular constituent the sum of the squares of the distances H(pl) from Rk(Pl) is minimized. This preferable parameter adjustment method is known in the art as a least squares fit of H( ) to Rk( ). Other possible model functions are based on polynomial fitting, for example by various known classes of polynomials.
Model fitting with a Hill function is illustrated with respect to FIGS. 2 and 3. As discussed, FIG. 2 illustrates an example of perturbation by methotrexate and identified by measurement. […]

The results in this text go back to patent US20010018182A1, “Methods of monitoring disease states and therapies using gene expression profiles” (Rosetta Inpharmatics, Inc., priority 1998, published 2001).

In assay [1], `CN(Cc1cnc2nc(N)nc(N)c2n1)c1ccc(C(=O)N[C@@H](CCC(=O)O)C(=O)O)cc1` [methotrexate] displayed a growth defect of 50%. Also, in assay [2], the “Hill function parameter a” value is reported as −0.61, the “Hill function parameter log10(u0)” value is given as 1.26 and the “Hill function parameter n” value amounted to 2.
